Literature values, collected in patent US20250000096A1, “ANTIMICROBIAL COMPOSITION WITH A LOW ODOR” (EVONIK CORPORATION, priority 2021, published 2025).

Settings: background statement

CC(=O)O [acetic acid]
limit for olfactory detection: 0.15 ppm
